# Reference: ChEMBL document CHEMBL5634151, “Anti-adipogenic action of a novel oxazole derivative through activation of AMPK pathway” (Eur J Med Chem, 2023)
# Calls of active or inactive are those of the source. The calls are words filed in the database; no cut-off is given here.
# Columns and labels:
# [1] = tested on: 3T3-L1; experiment: Anti-adipogenic activity in MDI-cocktail differentiated mouse 3T3-L1 pre-adipocyte cells assessed as inhibition of adipogenesis at 0.1 uM by Oil Red O staining based microscopic analysis; format: functional, cell-based
# [2] = tested on: 3T3-L1; experiment: Cytotoxicity against mouse 3T3-L1 pre-adipocyte cells assessed as reduction in cell viability upto 50 uM incubated for 48 hrs by MTT assay; format: toxicity, cell-based; details: 3t3-l1, 48 h
# [3] = tested on: 3T3-L1; experiment: Inhibition of MDI-cocktail induced adipogenic differentiation in mouse 3T3-L1 pre-adipocyte cells assessed as reduction in C/EBPalpha protein expression at 0.5 to 5 uM by Western blot analysis; format: functional, cell-based; details: dose 0.5-5 µM
# [4] = tested on: 3T3-L1; experiment: Inhibition of MDI-cocktail induced adipogenic differentiation in mouse 3T3-L1 pre-adipocyte cells assessed as reduction in FASN protein expression at 0.5 to 5 uM by Western blot analysis; format: functional, cell-based; details: dose 0.5-5 µM
# [5] = tested on: 3T3-L1; experiment: Inhibition of MDI-cocktail induced adipogenic differentiation in mouse 3T3-L1 pre-adipocyte cells assessed as increase in AMPK phosphorylation at Thr172 residue by Western blot analysis; format: functional, cell-based; details: dose 0.5-5 µM
# [6] = tested on: 3T3-L1; experiment: Inhibition of MDI-cocktail induced adipogenic differentiation in mouse 3T3-L1 pre-adipocyte cells assessed as reduction in PPARgamma gene expression at 5 uM by qRT-PCR analysis; format: functional, cell-based
# [7] = tested on: 3T3-L1; experiment: Inhibition of MDI-cocktail induced adipogenic differentiation in mouse 3T3-L1 pre-adipocyte cells assessed as reduction in FASN gene expression at 5 uM by qRT-PCR analysis; format: functional, cell-based
# [8] = tested on: 3T3-L1; experiment: Anti-adipogenic activity in MDI-cocktail differentiated mouse 3T3-L1 pre-adipocyte cells assessed as reduction in adipogenic differentiation at 5 uM measured after 0 to 5 days by Oil Red O staining based microscopic analysis; format: functional, cell-based; details: time 0-5 day
# [9] = tested on: 3T3-L1; experiment: Anti-adipogenic activity in MDI-cocktail differentiated mouse 3T3-L1 pre-adipocyte cells assessed as reduction in adipogenic differentiation at 5 uM measured after 0 to 7 days by Oil Red O staining based microscopic analysis; format: functional, cell-based; details: time 0-7 day
# [10] = tested on: 3T3-L1; experiment: Anti-adipogenic activity in MDI-cocktail differentiated mouse 3T3-L1 pre-adipocyte cells assessed as reduction in adipogenic differentiation at 5 uM measured after 5 to 7 days by Oil Red O staining based microscopic analysis; format: functional, cell-based; details: time 5-7 day
# [11] = tested on: C3H 10T1/2; experiment: Anti-adipogenic activity in MDI-cocktail differentiated mouse C3H 10T1/2 cells assessed as reduction in adipogenic differentiation at 5 uM measured after 0 to 3 days by Oil Red O staining based microscopic analysis; format: functional, cell-based; details: time 0-3 day
# [12] = tested on: 3T3-L1; experiment: Anti-adipogenic activity in MDI-cocktail differentiated mouse 3T3-L1 pre-adipocyte cells assessed as reduction in FASN protein expression at 5 uM measured for 3 to 7 days by immunoblotting analysis; format: functional, cell-based; details: time 3-7 day
# [13] = tested on: 3T3-L1; experiment: Anti-adipogenic activity in MDI-cocktail differentiated mouse 3T3-L1 pre-adipocyte cells assessed as increase in AMPK phosphorylation at Thr172 residue at 5 uM measured for 3 to 7 days by immunoblotting analysis; format: functional, cell-based; details: time 3-7 day
# [14] = tested on: 3T3-L1; experiment: Activation of AMPK pathway in MDI-cocktail differentiated mouse 3T3-L1 pre-adipocyte cells assessed as reversal of 6-(4-(2-(piperidin-1-yl)ethoxy)phenyl)-3-(pyridin-4yl)pyrazolo[1,5-a]pyrimidine induced AMPK inhibition at 5 uM incubated for 72 hrs by immunoblotting analysis; format: cell-based; details: filed as activator
# [15] = tested on: 3T3-L1; experiment: Induction of cell cycle arrest in MDI-cocktail differentiated mouse 3T3-L1 pre-adipocyte cells assessed as accumulation of cells at G1 phase at 3 to 5 uM incubated for 16 hrs by propidium iodide staining based flow cytometry analysis; format: functional; details: dose 3-5 µM
# [16] = tested on: 3T3-L1; experiment: Induction of cell cycle arrest in MDI-cocktail differentiated mouse 3T3-L1 pre-adipocyte cells assessed as reduction in cyclin D3 protein expression at 5 uM measured after 16 to 24 hrs by immunoblotting analysis; format: functional, cell-based; details: time 16-24 hrs
# [17] = tested on: 3T3-L1; experiment: Inhibition of MDI-cocktail induced mTOR phosphorylation at Ser2448 residue in mouse 3T3-L1 pre-adipocyte cells at 5 uM by immunoblotting analysis; format: cell-based
# [18] = tested on: 3T3-L1; experiment: Inhibition of MDI-cocktail induced AKT phosphorylation at Ser473 residue in mouse 3T3-L1 pre-adipocyte cells at 5 uM by immunoblotting analysis; format: cell-based
# [19] = tested on: 3T3-L1; experiment: Induction of mitochondrial respiration in MDI-cocktail differentiated mouse 3T3-L1 pre-adipocyte cells assessed as increase in oxygen consumption rate at 5 uM incubated for 72 hrs in presence of FCCP by Seahorse XFp flux analyzer; format: functional, cell-based
# [20] = tested on: 3T3-L1; experiment: Induction of basal respiration during early phase in MDI-cocktail differentiated mouse 3T3-L1 pre-adipocyte cells 5 uM incubated for 72 hrs by Seahorse XFp flux analyzer; format: functional, cell-based
# [21] = tested on: 3T3-L1; experiment: Induction of maximum respiration during early phase in MDI-cocktail differentiated mouse 3T3-L1 pre-adipocyte cells 5 uM incubated for 72 hrs by Seahorse XFp flux analyzer; format: functional, cell-based
# [22] = tested on: 3T3-L1; experiment: Induction of spare respiratory capacity during early phase in MDI-cocktail differentiated mouse 3T3-L1 pre-adipocyte cells 5 uM incubated for 72 hrs by Seahorse XFp flux analyzer; format: functional, cell-based
# [23] = tested on: 3T3-L1; experiment: Induction of proton leak during early phase in MDI-cocktail differentiated mouse 3T3-L1 pre-adipocyte cells 5 uM incubated for 72 hrs by Seahorse XFp flux analyzer; format: functional, cell-based
# [24] = tested on: 3T3-L1; experiment: Activation of AMPK in mouse 3T3-L1 mature adipocytes assessed as increase in AMPK phosphorylation at Thr172 residue incubated for 24 hrs by Western blot analysis; format: cell-based; details: filed as activator, dose 1-5 µM
# [25] = tested on: 3T3-L1; experiment: Upregulation of CV-ATP5A protein expression in mouse 3T3-L1 mature adipocytes at 1 to 5 uM incubated for 24 hrs by Western blot analysis; format: functional, cell-based; details: dose 1-5 µM
# [26] = tested on: Syrian golden hamster; experiment: Anti-obesity activity in high-fat diet induced Syrian golden hamster model assessed as reduction in weight gain at 50 mg/kg, po administered for 7 days and measured daily; format: functional, organism-based; details: Mesocricetus auratus, time 7.0 day
# [27] = tested on: Syrian golden hamster; experiment: Anti-obesity activity in high-fat diet induced Syrian golden hamster model assessed as rescue of normal eWAT weight at 25 to 50 mg/kg, po administered for 7 days; format: functional, organism-based; details: Mesocricetus auratus, dose 25-50 mg/kg, time 7.0 day
# [28] = tested on: Syrian golden hamster; experiment: Anti-obesity activity in high-fat diet induced Syrian golden hamster model assessed as rescue of normal liver weight at 25 to 50 mg/kg, po administered for 7 days; format: functional, organism-based; details: Mesocricetus auratus, dose 25-50 mg/kg, time 7.0 day
# [29] = tested on: Syrian golden hamster; experiment: Anti-obesity activity in high-fat diet induced Syrian golden hamster model assessed as reduction in fat mass at 50 mg/kg, po administered for 7 days by 1H NMR spectroscopy-based Echo MRI system; format: functional, organism-based; details: Mesocricetus auratus, time 7.0 day
# [30] = tested on: Syrian golden hamster; experiment: Anti-obesity activity in high-fat diet induced Syrian golden hamster model assessed as reduction in lipid accumulation in liver cells at 50 mg/kg, po administered for 7 days by H and E staining based inverted microscopic analysis; format: functional, organism-based; details: Mesocricetus auratus, time 7.0 day
# [31] = tested on: Syrian golden hamster; experiment: Anti-dyslipidaemic activity in high-fat diet induced Syrian golden hamster model assessed as assessed as reduction in serum total cholesterol level at 25 to 50 mg/kg, po administered for 7 days; format: functional, organism-based; details: Mesocricetus auratus, dose 25-50 mg/kg, time 7.0 day
# [32] = tested on: Syrian golden hamster; experiment: Anti-dyslipidaemic activity in high-fat diet induced Syrian golden hamster model assessed as assessed as reduction in serum LDL-cholesterol level at 25 to 50 mg/kg, po administered for 7 days; format: functional, organism-based; details: Mesocricetus auratus, dose 25-50 mg/kg, time 7.0 day
# [33] = tested on: Syrian golden hamster; experiment: Hepatoprotective activity in high-fat diet induced Syrian golden hamster model assessed as reduction in serum ALT level at 25 to 50 mg/kg, po administered for 7 days; format: functional, organism-based; details: Mesocricetus auratus, dose 25-50 mg/kg, time 7.0 day
smiles,measurement,setting,value
Cc1ccc(-c2cnc(-c3ccc[n+](Cc4cccc(C)c4)c3)o2)cc1.[Br-],Activity,[1],Active
same,Activity,[2],Non-Toxic
same,inhibition,[3],Active
same,inhibition,[4],Active
same,inhibition,[5],Dose-Dependent Effect
same,inhibition,[6],Active
same,inhibition,[7],Active
same,Activity,[8],Active
same,Activity,[9],Active
same,Activity,[10],Active
same,Activity,[11],Active
same,Activity,[12],Active
same,Activity,[13],Active
same,Activity,[14],Active
same,Activity,[15],Active
same,Activity,[16],Active
same,inhibition,[17],Active
same,inhibition,[18],Active
same,Activity,[19],Active
same,Activity,[20],Active
same,Activity,[21],Active
same,Activity,[22],Active
same,Activity,[23],Active
same,Activity,[24],Dose-Dependent Effect
same,Activity,[25],Active
same,Activity,[26],Active
same,Activity,[27],Active
same,Activity,[28],inactive
same,Activity,[29],Active
same,Activity,[30],Active
same,Activity,[31],Active
same,Activity,[32],Active
same,Activity,[33],Active
